Results published in patent US20240343707A1, “SUBSTITUTED PHENYL ETHYNYL PYRIMIDINES AS POTENT INHIBITORS OF ALPHAVIRUSES” (Southern Research Institute, priority 2023, published 2024).

Key:
Type in all cases: cell-based
in vitro = conditions: human
CHIKV [1] = test: microbe, parasite or virus in culture; conditions: Chikungunya virus, read-out: CHIK EC50 (μM)
CHIKV [2] = test: CHIKV virus titer reduction (VTR) assay in NHDF cells; conditions: Chikungunya virus; for EC90: read-out: CHIKV EC90 (μM); for log reduction at 10 µM: read-out: CHIKV VTR (logs)
VEEV (TC-83) = test: microbe, parasite or virus in culture; conditions: Venezuelan equine encephalitis virus, read-out: VEEV EC50 (μM)
VEEV = test: microbe, parasite or virus in culture; conditions: Venezuelan equine encephalitis virus, NHDF; for EC90: read-out: VEEV EC90 (μM); for log reduction at 10 µM: read-out: VEEV VTR (logs)

SMILES	CC50 (in vitro)	EC50 (CHIKV [1])	EC90 (CHIKV [2])	log reduction at 10 µM (CHIKV [2])	EC50 (VEEV (TC-83))	EC90 (VEEV)	log reduction at 10 µM (VEEV)
CC(C)(C)c1ccc(NC(=O)c2cccc(C#Cc3ncccn3)c2)cc1 [Compound 19, N-(4-tert-butylphenyl)-3-(2-pyrimidin-2-ylethynyl)benzamide]	5.08 µM	1.04 µM	0.2 µM	7.59	0.93 µM	0.3 µM	8.26
O=C(Nc1cccc(C#Cc2ncccn2)c1)c1ccc(N2CCCCC2=O)cc1 [Compound 21, 4-(2-oxo-1-piperidyl)-N-[3-(2-pyrimidin-2-ylethynyl)phenyl]benzamide]	> 40 µM	> 40 µM		1.83	32.2 µM		0.72
O=C(Nc1cccc(C#Cc2ncccn2)c1)C12CC3CC(CC(C3)C1)C2 [Compound 11, N-[3-(2-pyrimidin-2-ylethynyl)phenyl]adamantane-1-carboxamide]	> 40 µM	> 40 µM	20.3 µM	0.3	> 40 µM	20.1 µM	1.02
O=C1CCc2cc(S(=O)(=O)Nc3cccc(C#Cc4ncccn4)c3)ccc2N1 [Compound 10, 2-oxo-N-[3-(2-pyrimidin-2-ylethynyl)phenyl]-3,4-dihydro-1H-quinoline-6-sulfonamide]	33.2 µM	> 40 µM	1.13 µM	0.08	> 40 µM		0.81
O=C1CCc2cc(NC(=O)c3cccc(C#Cc4ncccn4)c3)ccc2N1 [Compound 1, N-(2-oxo-3,4-dihydro-1H-quinolin-6-yl)-3-(2-pyrimidin-2-ylethynyl)benzamide]	> 40 µM	0.23 µM	0.18 µM	3.15	1.6 µM	0.11 µM	7.85
O=C(Nc1cccc(C#Cc2ncccn2)c1)c1nc2c(s1)CCCC2 [Compound 9, N-[3-(2-pyrimidin-2-ylethynyl)phenyl]-4,5,6,7-tetrahydro-1,3-benzothiazole-2-carboxamide]	9.59 µM	5.78 µM	3.9 µM	1.65	> 40 µM	7.37 µM	2.59
CN1C(=O)CCc2cc(NC(=O)c3cccc(C#Cc4ncccn4)c3)ccc21 [Compound 3, N-(1-methyl-2-oxo-3,4-dihydroquinolin-6-yl)-3-(2-pyrimidin-2-ylethynyl)benzamide]	35.3 µM	0.3 µM	0.13 µM	8	0.77 µM	0.33 µM	8.58
O=C(Nc1ccc(C(F)(F)F)cc1)c1cccc(C#Cc2ncccn2)c1 [Compound 23, 3-(2-pyrimidin-2-ylethynyl)-N-[4-(trifluoromethyl)phenyl]benzamide]	> 40 µM	1.2 µM	0.85 µM		0.71 µM	0.82 µM	
O=C(Nc1ccc(N2CCCCC2=O)cc1)c1cccc(C#Cc2ncccn2)c1 [Compound 24, N-[4-(2-oxo-1-piperidyl)phenyl]-3-(2-pyrimidin-2-ylethynyl)benzamide]			0.63 µM	4.18		2.44 µM	4.6
CCOP(=O)(OCC)c1ccc(NC(=O)c2cccc(C#Cc3ncccn3)c2)cc1 [Compound 6, N-(4-diethoxyphosphorylphenyl)-3-(2-pyrimidin-2-ylethynyl)benzamide]	> 40 µM	0.44 µM			0.43 µM		
O=C1CCc2cc(NC(=O)c3cc(C#Cc4ncccn4)cc(OC(F)(F)F)c3)ccc2N1 [Compound 16, N-(2-oxo-3,4-dihydro-1H-quinolin-6-yl)-3-(2-pyrimidin-2-ylethynyl)-5-(trifluoromethoxy)benzamide]	> 40 µM	0.19 µM			0.16 µM		
O=C1CCc2ccc(NC(=O)c3cccc(C#Cc4ncccn4)c3)cc2N1 [Compound 17, N-(2-oxo-3,4-dihydro-1H-quinolin-7-yl)-3-(2-pyrimidin-2-ylethynyl)benzamide]	> 40 µM	0.83 µM	0.61 µM	6.94	2.18 µM	0.45 µM	6.81
O=C(Nc1ccc2c(c1)CCCN2)c1cccc(C#Cc2ncccn2)c1 [Compound 12, 3-(2-pyrimidin-2-ylethynyl)-N-(1,2,3,4-tetrahydroquinolin-6-yl)benzamide]	38.8 µM	1.02 µM	0.74 µM	7.58	1.39 µM	0.72 µM	5.47
O=C(Nc1ccc2c(c1)CCCC2)c1cccc(C#Cc2ncccn2)c1 [Compound 22, 3-(2-pyrimidin-2-ylethynyl)-N-tetralin-6-yl-benzamide]	> 40 µM	0.83 µM	0.7 µM		1.26 µM	0.7 µM	
O=C(Nc1ccc2c(c1)CCCCC2)c1cccc(C#Cc2ncccn2)c1 [Compound 8, 3-(2-pyrimidin-2-ylethynyl)-N-(6,7,8,9-tetrahydro-5H-benzo[7]annulen-3-yl)benzamide]	6.97 µM	0.71 µM	0.43 µM	6.89	> 40 µM	2.43 µM	7.97
O=C1CCc2cc(C(=O)Nc3cccc(C#Cc4ncccn4)c3)ccc2N1 [Compound 5, 2-oxo-N-[3-(2-pyrimidin-2-ylethynyl)phenyl]-3,4-dihydro-1H-quinoline-6-carboxamide]	> 40 µM	3.31 µM	1.09 µM	2.72	3.98 µM	1.15 µM	6.43
O=C1CC(Cc2ccc(NC(=O)c3cccc(C#Cc4ncccn4)c3)cc2)C(=O)N1 (stereo not shown) [Compound 13, N-[4-[(2,5-dioxopyrrolidin-3-yl)methyl]phenyl]-3-(2-pyrimidin-2-ylethynyl)benzamide]	> 40 µM	2.8 µM	0.16 µM	2.76	7.19 µM	2.53 µM	2.45
O=C(NCc1ccc2c(c1)OC(F)(F)O2)c1cccc(C#Cc2ncccn2)c1 [Compound 7, N-[(2,2-difluoro-1,3-benzodioxol-5-yl)methyl]-3-(2-pyrimidin-2-ylethynyl)benzamide]	> 40 µM	4.32 µM		4.43	> 40 µM		3.88
O=C1CCCc2cc(NC(=O)c3cccc(C#Cc4ncccn4)c3)ccc2N1 [Compound 2, N-(2-oxo-1,3,4,5-tetrahydro-1-benzazepin-7-yl)-3-(2-pyrimidin-2-ylethynyl)benzamide]	> 40 µM	0.51 µM	0.15 µM	7.7	2.27 µM	0.55 µM	7.77
O=C(Nc1cccc(C#Cc2ncccn2)c1)c1cc(C2CC2)[nH]c(=O)c1 [Compound 18, 2-cyclopropyl-6-oxo-N-[3-(2-pyrimidin-2-ylethynyl)phenyl]-1H-pyridine-4-carboxamide]	> 40 µM	28.1 µM		0.62	10.3 µM	5.66 µM	2.43
O=C1Cc2cc(NC(=O)c3cccc(C#Cc4ncccn4)c3)ccc2N1 [Compound 4, N-(2-oxoindolin-5-yl)-3-(2-pyrimidin-2-ylethynyl)benzamide]	> 40 µM	0.66 µM	0.095 µM	10	2.11 µM	0.32 µM	3.19
COc1cc(C#Cc2ncccn2)cc(C(=O)Nc2ccc3c(c2)CCC(=O)N3C)c1 [Compound 15, 3-methoxy-N-(1-methyl-2-oxo-3,4-dihydroquinolin-6-yl)-5-(2-pyrimidin-2-ylethynyl)benzamide]	26 µM	0.2 µM			0.33 µM		
CC(C)(C#N)c1ccc(NC(=O)c2cccc(C#Cc3ncccn3)c2)cc1 [Compound 20, N-[4-(1-cyano-1-methyl-ethyl)phenyl]-3-(2-pyrimidin-2-ylethynyl)benzamide]	17.8 µM	0.27 µM	0.07 µM	10	0.34 µM	0.06 µM	8.08
COc1cc(C#Cc2ncccn2)cc(C(=O)Nc2ccc3c(c2)CCC(=O)N3)c1 [Compound 14, 3-methoxy-N-(2-oxo-3,4-dihydro-1H-quinolin-6-yl)-5-(2-pyrimidin-2-ylethynyl)benzamide]	> 40 µM	0.16 µM			0.44 µM		
